Measured values published in patent US12024504B2, “1-methyl-1H-pyrazol-3-yl derivatives for use in the treatment of neovascular diseases” (EXONATE LIMITED, priority 2021, dated 2024).
pIC50: −log10 of the molar value.

Columns and labels:
[1] = target: T1, SRPK1 (Homo sapiens, UniProt Q96SB4); assay: In vitro kinase assay (radioactive filter binding, 33P ATP); format: biochemical
T1 construct: purchased MRC Dundee Kinase Centre (external assay service)
Procedure: Kinase assays were carried out by the MRC Dundee Kinase Centre using a radioactive filter binding assay using ^33P ATP (Hastie, et al 2006. Nat Protoc. 2006; 1(2):968-71; Bain, et al 2007. Biochem J. 2007 Dec. 15; 408(3):297-315).

[2] = Rabbit pharmacokinetic study (eye drop); format: in vivo; conditions: single 50 μL eye drop, 500 μg/mL, 1, 4, 12 or 24 hours
Procedure: Rabbits were treated with a single 50 μL eye drop of pazopanib at 80 μg/ml (maximum limit of solubility) and compound R at 500 μg/mL in the initial eye drop formulation containing 1% hydroxypropyl methyl cellulose, 0.2% tyloxapol, 3.4% dextrose, 0.006% benzalkonium chloride, and 0.025% ethylenediaminetetraacetic acid with 1% DMSO in PBS or with a single 50 μL eye drop of compound 1 at 500 μg/mL in the eye drop formulation containing 7% poly-oxyl-40-stearate and 4% dextrose in PBS. No difference between the eye drop formulations was confirmed in a separate study. Rabbits were killed at the indicated time points after the eye drop, blood and eyes taken, and the retina dissected from the choroid and sclera, incisions made, and laid out flat. Retina, RPE/choroid and sclera eye compartments were dissected into 7 different areas. All samples were weighed. Compound was extracted by reverse phase extraction from the retina and choroid/sclera samples and the plasma as above, and amount determined by mass spectrometry in different areas of the eye and in the blood. […]
To determine if the compounds could access the RPE of an animal with a large eye, a rabbit was exposed to 500 μg/mL of the compound as an eye drop and the concentrations in the retina, sclera, vitreous and other eye tissues (cornea); lens; RPE/choroid were measured. […]

[3] = system: choroidal neovascularisation; assay: Laser-induced choroidal neovascularisation (CNV); format: in vivo, C57/B6 mice
Procedure: 6-8 week-old female C57/B6 mice were anesthetized with an intraperitoneal injection of a mixture of 50 mg/kg ketamine and 0.5 mg/kg medetomidine. The pupils were immediately dilated by topical (eyedrop) application with a dilator such as 5% phenylephrine hydrochloride and 1% tropicamide. Four photocoagulation lesions were delivered with a green Merilas 532α laser (450 mW, 130 ms) between the “large” retinal vessels in clear space with no vessels in a peripapillary distribution at a distance of 1-2 disc-diameters in each eye. Only clean laser lesions with a subretinal bubble at the time of treatment were included in the study. Immediately following laser photocoagulation the animals were given topical eye drops of candidate compounds twice daily at 2 μg/mL, 0.2 μg/mL or 0.066 μg/mL or eye drop formulation control as indicated (10 μL, eyes held for 30 seconds to prevent animal wiping drop away). Experiments were performed with an initial eye drop formulation containing 1% hydroxypropyl methyl cellulose, 0.2% tyloxapol, 3.4% dextrose, 0.006% benzalkonium chloride, and 0.025% ethylenediaminetetraacetic acid with 1% DMSO in PBS and data were confirmed in a second eye drop formulation containing 7% poly-oxyl-40-stearate and 4% dextrose in PBS.
After one week, mice were anesthetized with an intraperitoneal injection of a mixture of 50 mg/kg ketamine and 0.5 mg/kg medetomidine. […]

T1 sequence (Q96SB4 whole entry): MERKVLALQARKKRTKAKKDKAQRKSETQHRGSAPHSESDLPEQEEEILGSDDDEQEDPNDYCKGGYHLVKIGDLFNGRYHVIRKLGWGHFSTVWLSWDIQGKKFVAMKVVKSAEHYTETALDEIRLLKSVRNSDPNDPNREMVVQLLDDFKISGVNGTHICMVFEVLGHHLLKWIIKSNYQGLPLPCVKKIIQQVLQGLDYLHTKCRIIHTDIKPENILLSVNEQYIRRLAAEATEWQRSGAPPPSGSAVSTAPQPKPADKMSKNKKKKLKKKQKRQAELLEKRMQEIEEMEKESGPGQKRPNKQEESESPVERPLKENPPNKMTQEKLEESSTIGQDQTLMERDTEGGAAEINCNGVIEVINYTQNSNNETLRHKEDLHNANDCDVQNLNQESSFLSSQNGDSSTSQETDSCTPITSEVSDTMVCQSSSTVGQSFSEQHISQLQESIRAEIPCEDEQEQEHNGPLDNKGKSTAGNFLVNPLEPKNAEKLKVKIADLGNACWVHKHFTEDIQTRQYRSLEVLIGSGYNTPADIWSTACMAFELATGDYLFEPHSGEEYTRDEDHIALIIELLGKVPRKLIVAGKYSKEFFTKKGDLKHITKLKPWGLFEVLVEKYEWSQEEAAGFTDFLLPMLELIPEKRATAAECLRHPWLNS

pIC50 [1]: 8.40
SMILES: Cn1ccc(CN2CCN(c3ccc(C(F)(F)F)cc3NC(=O)c3ccc(C4CCOCC4)o3)CC2)n1 [Compound 1, N-(2-(4-((1-methyl-1H-pyrazol-3-yl)methyl)piperazin-1-yl)-5-(trifluoromethyl)phenyl)-5-(tetrahydro-2H-pyran-4-yl)furan-2-carboxamide]
Retinal penetration after eye drop [2]: better sustained penetration (e.g. at 4 hrs) than chemically similar molecules such as Compound R | Anti-angiogenic activity on lesion size versus reference compounds ([3]; laser-induced mouse model of CNV, FIG. 7): same anti-angiogenic activity on lesion size as reference compounds | Inhibition of choroidal neovascularisation ([3]; mouse, eye drops twice daily at 0.066 μg/mL, FIG. 7b): significantly inhibited
